Test system: neuroblastoma cell strains IMR-32, SK—N—SH, and NB-39
Test: MTT assay, anti-malignant-tumor effect on neuroblastoma cell strains
Assay type: cell-based
Settings: 48 hours incubation
Experimental: The anti-malignant-tumor effect of compounds (1), (2a), (2b), and (2c) on neuroblastoma cell strains IMR-32, SK—N—SH, and NB-39 was investigated using the MTT assay.
Specifically, each type of cells was seeded onto a 96-well plate so that the cell density was adjusted to 1×10^4 cells/well, and each drug compound was added to the wells 24 hours after seeding, followed by incubation under 5%-CO2 at 37° C. for 48 hours. Subsequently, an MTT solution was added to the wells, and blue formazan formed three hours after addition was well-mixed through pipetting. The absorbance of each well was measured at 570 nm (top) and 655 nm (bottom), and the survival cell rate with respect to the control group was calculated. In this assay, formation of blue formazan caused by activity of mitochondria is observed only when cells survive.

| SMILES | cytotoxicity to neuroblastoma cells (survival cell rate, FIGS. 2 to 13) |
| --- | --- |
| C=CC[C@]12CC=CC(=O)[C@@]1(O)O[C@H](c1cc(OC)c3c(c1)OCO3)[C@H]2C [compound (2c), ferrearin G] | intense cytotoxicity |
| C=CC[C@]12CC=CC(=O)[C@@]1(O)O[C@H](c1ccc(OC)c(OC)c1)[C@H]2C [compound (2a)] | intense cytotoxicity |
| C=CCOc1c(OC)cc2c(c1OC)O[C@H](c1ccc3c(c1)OCO3)[C@H]2C [compound (1)] | intense cytotoxicity |
| C=CC[C@]12CC=CC(=O)[C@@]1(O)OC(c1ccc3c(c1)OCO3)[C@H]2C (stereo partly shown) [compound (2b), ferrearin C] | intense cytotoxicity |

Reference: patent publication US20090030073A1, “PLANT-DERIVED THERAPEUTIC AGENT FOR MALIGNANT” (priority 2006, published 2009)
